One experiment has as its target T1, Chitinase B (Serratia marcescens, UniProt P11797).
T1 sequence (P11797 whole entry): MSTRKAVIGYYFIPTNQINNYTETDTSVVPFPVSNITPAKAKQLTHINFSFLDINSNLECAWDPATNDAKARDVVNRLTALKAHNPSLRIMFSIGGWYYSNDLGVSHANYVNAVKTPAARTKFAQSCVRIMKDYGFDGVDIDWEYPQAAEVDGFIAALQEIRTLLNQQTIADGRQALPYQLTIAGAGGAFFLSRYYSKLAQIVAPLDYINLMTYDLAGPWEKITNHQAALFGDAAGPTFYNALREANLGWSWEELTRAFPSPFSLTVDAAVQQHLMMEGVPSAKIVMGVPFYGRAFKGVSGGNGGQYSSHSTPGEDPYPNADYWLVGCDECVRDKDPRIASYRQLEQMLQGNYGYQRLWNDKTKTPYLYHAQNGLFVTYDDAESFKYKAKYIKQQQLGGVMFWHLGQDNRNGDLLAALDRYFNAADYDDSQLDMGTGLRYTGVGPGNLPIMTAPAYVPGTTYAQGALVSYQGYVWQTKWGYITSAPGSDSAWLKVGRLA
Put plainly: Binding affinity to Serratia marcescens chitinase B.

Experiment [1] in a line: Inhibition of Lucilia cuprina chitinase B.

A word on the IC50: it is the concentration needed to halve the response being measured. Low readings indicate inhibition by little substance, high ones a need for much substance. As usually defined, the Ki is a dissociation constant, usually derived from enzyme kinetics or from competition with a known ligand. At Chitinase B, `CC(=O)NC(=N)NCCC[C@@H]1NC(=O)[C@H](CCCC(=O)O)NC(=O)[C@H](Cc2c[nH]cn2)N2C(=O)[C@H](C[C@H]2O)NC(=O)[C@H]2CCCN2C1=O` [ARGADIN] showed an IC50 of 3.4 nM. In experiment [1], the affinity corresponds to a Ki of 20 nM.

At Chitinase B, `CNC(=O)NC(=N)NCCC[C@@H]1NC(=O)[C@@H](C)NC(=O)C[C@@H](C(=O)O)NC(=O)C[C@@H](C(=O)O)NC(=O)[C@H](Cc2ccccc2)N(C)C1=O` [ARGIFIN] displayed an IC50 of 100 nM. For the same molecule, the Ki in experiment [1] was 33000 nM.

Source of the values: ChEMBL document CHEMBL1157164, “Computational analysis of the binding affinities of the natural-product cyclopentapeptides argifin and argadin to chitinase B from Serratia marcescens” (Bioorg Med Chem, 2008).
